Experimental data published in patent publication EP1005865A1, “A anti-allergy anti-inflammatory composition comprising nimesulide and cetirizine” (priority 1998, dated 2000).
pIC50: −log10 of the molar value. Where a name gives a salt, the structure may show the parent alone.

Tests used:
chronic hives patients = details: daily regimen of 10mg of cetirizine; cited from earlier work
[1] = system: Leukotriene D4 (LTD4) induced bronchoconstrictor in guinea pigs; experiment: Leukotriene D4-induced bronchospasm in guinea pig (insufflation pressure); details: for % Insufflation pressure after LTD4 1 µg/kg LTD4: control 186.02 ± 52.58; for % Insufflation pressure after LTD4 2 µg/kg LTD4: control 246.56 ± 14.33; for decrease in % insufflation pressure, LTD4-induced bronchoconstriction: matches the 1 µg/kg LTD4 column of Table 3
[2] = system: Histamine induced bronchoconstrictor in guinea pigs; experiment: Histamine-induced bronchospasm in anaesthetised, ventilated guinea pig (insufflation pressure); details: for Histamine Challenge (% Insufflation pressure) 5 µg/kg: histamine 5 µg/kg iv, control 187.42 ± 22.49; for Histamine Challenge (% Insufflation pressure) 10 µg/kg: histamine 10 µg/kg iv, control 239.07 ± 43.64
PDE IV = PDE IV inhibitor in vitro, reported; cited from earlier work
[3] = system: Antigen (egg albumin) induced bronchoconstrictor in guinea pigs; experiment: Egg albumin (antigen)-induced bronchospasm in sensitized guinea pig (insufflation pressure)
Description: The animals were stabilized for 10 minutes.
Cetirizine was dissolved in deionized water. […] Histamine and d-tubocurarine chloride were dissolved in saline and Leukotriene D4 was diluted with Methanol and Ammonium Acetate buffer in a ratio of 70 : 30 at a pH of 5.4.
Guinea pigs were sensitized by injections of 100 mg of Egg albumin ip and 100 mg Egg albumin sc in saline. Guinea pigs were used after day 21st.

[4] = cited from earlier work
[5] = Cetrizine 1.16 mg/kg p.o 2 hours before challenge, n 1
[6] = Cetrizine 1.16 mg/kg p.o 2 hours before challenge
[7] = Nimesulide 11.66 mg/kg p.o 2 hours before challenge
[8] = Nimesulide 23.32 mg/kg p.o 2 hours before challenge

## O=C(O)COCCN1CCN(C(c2ccccc2)c2ccc(Cl)cc2)CC1 (centres unmarked) [Cetrizine, Cetirizine dihydrochloride]
Chronic hives patients
  chronic hives patients reporting excellent results: ~70%
[1]; [5]
  % Insufflation pressure after LTD4 1 µg/kg LTD4: 57.14%
  % Insufflation pressure after LTD4 2 µg/kg LTD4: 92.85%
[1]; Cetirizine 1.16 mg/kg
  effect on LTD4-induced contractions: significantly blocked
[1]; Cetirizine 1.16 mg/kg p.o
  decrease in % insufflation pressure, LTD4-induced bronchoconstriction: 42.86%
[2]; Cetirizine 1.16 mg/kg p.o, matches the 5 µg/kg histamine column of Table 1
  decrease in % insufflation pressure, histamine induced bronchoconstriction: 62.71%
[2]; [6]
  Histamine Challenge (% Insufflation pressure) 5 µg/kg: 37.29 ± 6.76 %
  Histamine Challenge (% Insufflation pressure) 10 µg/kg: 68.35 ± 18.20 %
[2]; histamine 5 and 10 µg/kg, Cetirizine 1.66 mg/kg (so in the source)
  effect on histamine induced increase in insufflation pressure: significantly reduced

## CS(=O)(=O)Nc1ccc([N+](=O)[O-])cc1Oc1ccccc1 [Nimesulide]
PDE IV
  pIC50: ~4.40
[1]; [7]
  % Insufflation pressure after LTD4 1 µg/kg LTD4: 192.45 ± 45.53%
  % Insufflation pressure after LTD4 2 µg/kg LTD4: 197.02 ± 37.76%
[1]; [8]
  % Insufflation pressure after LTD4 1 µg/kg LTD4: 38.99 ± 19.79 %
  % Insufflation pressure after LTD4 2 µg/kg LTD4: 140.07 ± 61.15 %
[1]; Nimesulide 11.66 mg/kg
  effect on insufflation pressure, LTD4-induced contractions: no effect
[1]; Nimesulide 23.32 mg/kg p.o
  decrease in % insufflation pressure, LTD4-induced bronchoconstriction: 61.0%
[1]; double dose Nimesulide 23.32 mg/kg
  effect on LTD4-induced contractions: potent inhibitory effect
[3]; Nimesulide 11.66 mg/kg p.o, matches the 1 mg/kg egg albumin column of Table 2
  decrease in % insufflation pressure, egg albumin induced bronchoconstriction: 90.24%
[3]; egg albumin 1 mg/kg, 2 mg/kg, Nimesulide 11.66 mg/kg
  effect on egg albumin induced insufflation pressure: significantly reduced
[3]; sensitized guinea pigs, egg albumin 1 mg/kg, Nimesulide 11.66 mg/kg p.o, control 111.88 ± 10.53
  % Insufflation pressure after egg albumin challange 1 mg/kg: 9.76 ± 4.17 %
[3]; sensitized guinea pigs, egg albumin 2 mg/kg, Nimesulide 11.66 mg/kg p.o, control 196.90 ± 32.98
  % Insufflation pressure after egg albumin challange 2 mg/kg: 19.39 ± 4.32 %
[2]; Nimesulide single dose, S, 11.66 mg/kg and double dose, D, 23.32 mg/kg
  effect on histamine induced increase in insufflation pressure: no significant inhibitory effect
[2]; Nimesulide, dose not given
  antihistaminic effect, histamine induced bronchoconstriction: no antihistaminic effect
[2]; [7]
  Histamine Challenge (% Insufflation pressure) 5 µg/kg: 171.07 ± 23.76%
  Histamine Challenge (% Insufflation pressure) 10 µg/kg: 236.47 ± 40.40%
[2]; [8]
  Histamine Challenge (% Insufflation pressure) 5 µg/kg: 163.15 ± 43.27%
  Histamine Challenge (% Insufflation pressure) 10 µg/kg: 205.10 ± 31.33%

## O=C(O)c1cc(=O)c2c(OCC(O)COc3cccc4oc(C(=O)O)cc(=O)c34)cccc2o1 [cromolyn sodium]
[4]; inhaled, taken 4 times daily
  half-life: 45 to 100 min
[4]; oral dose
  fraction of an oral dose absorbed: about 1%
